Consider 42 compounds from US7732475B2, “Histone deacetylase inhibitors” (Takeda San Diego, Inc., priority 2005, dated 2010).

SMILES strings stand for the structures.

In the first assay the target is HDAC2 (Homo sapiens, UniProt Q92769). The assay can be described thus: HDAC2 fluorescence inhibition assay (tBoc-Lys(Ac)-AMC).
Sequence of HDAC2 (Q92769 with tags, fused parts or gaps): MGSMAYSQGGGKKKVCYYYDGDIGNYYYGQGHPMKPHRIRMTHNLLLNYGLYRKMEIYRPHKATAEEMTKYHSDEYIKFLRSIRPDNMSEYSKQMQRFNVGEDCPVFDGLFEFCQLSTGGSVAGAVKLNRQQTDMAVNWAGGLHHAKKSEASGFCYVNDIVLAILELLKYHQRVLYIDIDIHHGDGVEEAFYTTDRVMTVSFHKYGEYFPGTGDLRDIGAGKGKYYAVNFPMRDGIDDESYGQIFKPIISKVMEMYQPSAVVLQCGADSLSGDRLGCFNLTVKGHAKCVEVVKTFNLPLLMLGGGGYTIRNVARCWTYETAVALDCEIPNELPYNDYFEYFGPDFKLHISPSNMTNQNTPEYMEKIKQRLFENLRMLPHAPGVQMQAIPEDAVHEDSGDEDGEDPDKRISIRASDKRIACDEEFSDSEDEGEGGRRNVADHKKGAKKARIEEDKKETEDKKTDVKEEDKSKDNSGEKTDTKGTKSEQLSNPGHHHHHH
Conditions: not given
With `COc1ccc2c(cnn2Cc2ccc(C(=O)Nc3ccccc3N)cc2)c1` [Example 78, N-(2-aminophenyl)-4-((5-methoxy-1H-indazol-1-yl)methyl)benzamide], the half-inhibitory concentration (IC50) (as a rule, the concentration at which inhibition is half-maximal) is not above 50 nM.
The same measure, in the same setting: as for `COc1ccc2nn(Cc3ccc(C(=O)Nc4ccccc4N)cc3)cc2c1` [Example 79, N-(2-aminophenyl)-4-((5-methoxy-2H-indazol-2-yl)methyl)benzamide], the figure is not above 50 nM; as for `Cc1ccc2c(c1)c(C)nn2Cc1ccc(C(=O)Nc2ccccc2N)cc1` [Example 80, N-(2-aminophenyl)-4-((3,5-dimethyl-1H-indazol-1-yl)methyl)benzamide], 50 to 100 nM.
The same measure, in the same setting: as for `Cc1ccc2nn(Cc3ccc(C(=O)Nc4ccccc4N)cc3)c(C)c2c1` [Example 81, N-(2-aminophenyl)-4-((3,5-dimethyl-2H-indazol-2-yl)methyl)benzamide], the figure is 50 to 100 nM.
The same measure, in the same setting: as for `COc1cccc2cn(Cc3ccc(C(=O)Nc4ccccc4N)cc3)nc12` [Example 82, N-(2-aminophenyl)-4-((7-methoxy-2H-indazol-2-yl)methyl)benzamide], the figure is 50 to 100 nM; as for `COc1cccc2nn(Cc3ccc(C(=O)Nc4ccccc4N)cc3)cc12` [Example 83, N-(2-aminophenyl)-4-((4-methoxy-2H-indazol-2-yl)methyl)benzamide], not above 50 nM.
Regarding `COc1cccc2cnn(Cc3ccc(C(=O)Nc4ccccc4N)cc3)c12` [Example 84, N-(2-aminophenyl)-4-((7-methoxy-1H-indazol-1-yl)methyl)benzamide], the IC50 lay in the range of 100 to 500 nM.
`COc1cccc2c1cnn2Cc1ccc(C(=O)Nc2ccccc2N)cc1` [Example 85, N-(2-aminophenyl)-4-((4-methoxy-1H-indazol-1-yl)methyl)benzamide] registered an IC50 not above 50 nM.
Still for that read-out and setting: as for `CC(=O)Nc1ccc2c(C)n(Cc3ccc(C(=O)Nc4ccccc4N)cc3)nc2c1` [Example 86, 4-((6-acetamido-3-methyl-2H-indazol-2-yl)methyl)-N-(2-aminophenyl)benzamide], the figure is not above 50 nM.
The same measure, in the same setting: as for `CC(=O)Nc1ccc2c(C)nn(Cc3ccc(C(=O)Nc4ccccc4N)cc3)c2c1` [Example 87, 4-((6-acetamido-3-methyl-1H-indazol-1-yl)methyl)-N-(2-aminophenyl)benzamide], the figure is 50 to 100 nM; as for `Nc1ccccc1NC(=O)c1ccc(Cn2nc3ccccc3c2N)cc1` [Example 88, 4-((3-amino-2H-indazol-2-yl)methyl)-N-(2-aminophenyl)benzamide], 50 to 100 nM.
On the same count and under the same terms, as for `CC(=O)Nc1ccc2cnn(Cc3ccc(C(=O)Nc4ccccc4N)cc3)c2c1` [Example 89, 4-((6-acetamido-1H-indazol-1-yl)methyl)-N-(2-aminophenyl)benzamide], the figure is not above 50 nM; as for `CC(=O)Nc1ccc2cn(Cc3ccc(C(=O)Nc4ccccc4N)cc3)nc2c1` [Example 90, 4-((6-acetamido-2H-indazol-2-yl)methyl)-N-(2-aminophenyl)benzamide], not above 50 nM; as for `Cc1c2cccc(C(F)(F)F)c2nn1Cc1ccc(C(=O)Nc2ccccc2N)cc1` [Example 91, N-(2-aminophenyl)-4-((3-methyl-7-(trifluoromethyl)-2H-indazol-2-yl)methyl)benzamide], 50 to 100 nM.
`Cc1c2ccc(C(F)(F)F)cc2nn1Cc1ccc(C(=O)Nc2ccccc2N)cc1` [Example 92, N-(2-aminophenyl)-4-((3-methyl-6-(trifluoromethyl)-2H-indazol-2-yl)methyl)benzamide]: the IC50 is 50 to 100 nM.
The same measure, in the same setting: as for `Cc1nn(Cc2ccc(C(=O)Nc3ccccc3N)cc2)c2cc(C(F)(F)F)ccc12` [Example 93, N-(2-aminophenyl)-4-((3-methyl-6-(trifluoromethyl)-1H-indazol-1-yl)methyl)benzamide], the figure is 50 to 100 nM.
Same read-out and setting: as for `Cc1nn(Cc2ccc(C(=O)Nc3ccccc3N)cc2)c2ccc(C(F)(F)F)cc12` [Example 94, N-(2-aminophenyl)-4-((3-methyl-5-(trifluoromethyl)-1H-indazol-1-yl)methyl)benzamide], the figure is 50 to 100 nM; as for `Cc1c2cc(C(F)(F)F)ccc2nn1Cc1ccc(C(=O)Nc2ccccc2N)cc1` [Example 95, N-(2-aminophenyl)-4-((3-methyl-5-(trifluoromethyl)-2H-indazol-2-yl)methyl)benzamide], not above 50 nM; as for `Nc1ccccc1NC(=O)c1ccc(Cn2nc(N)c3ccccc32)cc1` [Example 96, 4-((3-amino-1H-indazol-1-yl)methyl)-N-(2-aminophenyl)benzamide], 50 to 100 nM.
Regarding `COc1cc2nn(Cc3ccc(C(=O)Nc4ccccc4N)cc3)cc2cc1O` [Example 97, N-(2-aminophenyl)-4-((5-hydroxy-6-methoxy-2H-indazol-2-yl)methyl)benzamide], the IC50 lay in the range of 50 to 100 nM.
The same measure, in the same setting: as for `COc1cc2cn(Cc3ccc(C(=O)Nc4ccccc4N)cc3)nc2cc1OC` [Example 98, N-(2-aminophenyl)-4-((5,6-dimethoxy-2H-indazol-2-yl)methyl)benzamide], the figure is not above 50 nM.
The same measure, in the same setting: as for `COc1cc2cnn(Cc3ccc(C(=O)Nc4ccccc4N)cc3)c2cc1OC` [Example 99, N-(2-aminophenyl)-4-((5,6-dimethoxy-1H-indazol-1-yl)methyl)benzamide], the figure is not above 50 nM; as for `Nc1ccccc1NC(=O)c1ccc(Cn2nnc3ccccc32)cc1` [Example 100, 4-((1H-benzo[d][1,2,3]triazol-1-yl)methyl)-N-(2-aminophenyl)benzamide], 50 to 100 nM; as for `Nc1ccccc1NC(=O)c1ccc(Cn2nc3ccccc3n2)cc1` [Example 101, 4-((2H-benzo[d][1,2,3]triazol-2-yl)methyl)-N-(2-aminophenyl)benzamide], 50 to 100 nM.
Same read-out and setting: as for `Nc1ccccc1NC(=O)c1ccc(Cn2cc(C(=O)NCCN3CCNCC3)cn2)cc1` [Example 103, 1-(4-(2-aminophenylcarbamoyl)benzyl)-N-(2-(piperazin-1-yl)ethyl)-1H-pyrazole-4-carboxamide], the figure is not above 50 nM.
The compound `Nc1ncncc1NC(=O)c1ccc(Cn2cc3ccccc3n2)cc1` [Example 104, 4-((2H-indazol-2-yl)methyl)-N-(4-aminopyrimidin-5-yl)benzamide] came in with an IC50 not below 500 nM.
Same read-out and setting: as for `CC(=O)Nc1ccc2c(c1)c(N)nn2Cc1ccc(C(=O)Nc2ccccc2N)cc1` [Example 105, 4-((5-acetamido-3-amino-1H-indazol-1-yl)methyl)-N-(2-aminophenyl)benzamide], the figure is 50 to 100 nM; as for `CC(=O)Nc1ccc2nn(Cc3ccc(C(=O)Nc4ccccc4N)cc3)c(C)c2c1` [Example 106, 4-((5-acetamido-3-methyl-2H-indazol-2-yl)methyl)-N-(2-aminophenyl)benzamide], not above 50 nM.
Still for that read-out and setting: as for `CC(=O)Nc1ccc2c(c1)c(C)nn2Cc1ccc(C(=O)Nc2ccccc2N)cc1` [Example 107, 4-((5-acetamido-3-methyl-1H-indazol-1-yl)methyl)-N-(2-aminophenyl)benzamide], the figure is 50 to 100 nM; as for `CC(c1ccc(C(=O)Nc2ccccc2N)cc1)n1ncc2ccccc21` (stereo not drawn) [Example 108, 4-(1-(1H-indazol-1-yl)ethyl)-N-(2-aminophenyl)benzamide], 50 to 100 nM.
As for `CC(c1ccc(C(=O)Nc2ccccc2N)cc1)n1cc2ccccc2n1` (stereo not drawn) [Example 109, 4-(1-(2H-indazol-2-yl)ethyl)-N-(2-aminophenyl)benzamide], the IC50 is 50 to 100 nM.
For `CC(=O)Nc1ccc2c(cnn2Cc2ccc(C(=O)Nc3ccccc3N)s2)c1` [Example 110, 5-((5-acetamido-1H-indazol-1-yl)methyl)-N-(2-aminophenyl)thiophene-2-carboxamide], the IC50 is 50 to 100 nM.
As for `Nc1ccc(-c2cccs2)cc1NC(=O)c1ccc(Cn2cc3ccccc3n2)cc1` [Example 111, 4-((2H-indazol-2-yl)methyl)-N-(2-amino-5-(thiophen-2-yl)phenyl)benzamide], the IC50 is not above 50 nM.
The same measure, in the same setting: as for `Nc1ccc(-c2cccs2)cc1NC(=O)c1ccc(Cn2cc3c(F)cc(F)cc3n2)cc1` [Example 112, N-(2-amino-5-(thiophen-2-yl)phenyl)-4-((4,6-difluoro-2H-indazol-2-yl)methyl)benzamide], the figure is 100 to 500 nM; as for `Nc1ccc(-c2cccs2)cc1NC(=O)c1ccc(Cn2ncc3c(F)cc(F)cc32)cc1` [Example 113, N-(2-amino-5-(thiophen-2-yl)phenyl)-4-((4,6-difluoro-1H-indazol-1-yl)methyl)benzamide], 100 to 500 nM; as for `COc1ccc2c(C)nn(Cc3ccc(C(=O)Nc4cc(-c5cccs5)ccc4N)cc3)c2c1` [Example 114, N-(2-amino-5-(thiophen-2-yl)phenyl)-4-((6-methoxy-3-methyl-1H-indazol-1-yl)methyl)benzamide], 50 to 100 nM.
In turn, `Cc1cnn(Cc2ccc(C(=O)Nc3cc(-c4cccs4)ccc3N)cc2)c1` [Example 115, N-(2-amino-5-(thiophen-2-yl)phenyl)-4-((4-methyl-1H-pyrazol-1-yl)methyl)benzamide] registered an IC50 not above 50 nM.
The same measure, in the same setting: as for `COc1ccc2c(C)n(Cc3ccc(C(=O)Nc4cc(-c5cccs5)ccc4N)cc3)nc2c1` [Example 116, N-(2-amino-5-(thiophen-2-yl)phenyl)-4-((6-methoxy-3-methyl-2H-indazol-2-yl)methyl)benzamide], the figure is 50 to 100 nM; as for `Nc1ccccc1NC(=O)c1ccc(Cn2ncc3c(C(F)(F)F)cccc32)cc1` [Example 117, N-(2-aminophenyl)-4-((4-(trifluoromethyl)-1H-indazol-1-yl)methyl)benzamide], 50 to 100 nM; as for `Nc1ccccc1NC(=O)c1ccc(Cn2cc3c(C(F)(F)F)cccc3n2)cc1` [Example 118, N-(2-aminophenyl)-4-((4-(trifluoromethyl)-2H-indazol-2-yl)methyl)benzamide], 50 to 100 nM.
The same measure, in the same setting: as for `Nc1ccccc1NC(=O)c1ccc(Cn2ncc3cc(C(F)(F)F)ccc32)cc1` [Example 119, N-(2-aminophenyl)-4-((5-(trifluoromethyl)-1H-indazol-1-yl)methyl)benzamide], the figure is 50 to 100 nM.

Staying with this assay, now noted: read-out: IC50 of selected exemplified compounds against HDAC2; 50 μM tBoc-Lys(Ac)-AMC, 1 nM HDAC2, 60 minutes at room temperature.
On to `CC(=O)Nc1ccc2c(cnn2Cc2ccc(C(=O)Nc3ccccc3N)cc2)c1` [Example 102, 4-((5-acetamido-1H-indazol-1-yl)methyl)-N-(2-aminophenyl)benzamide], for which the IC50 was not below 500 nM.
